For the test, the target named is SYK (Homo sapiens, UniProt P43405). Briefly: In vitro kinase inhibition assay. Type of test: biochemical. The note with it: for remained SYK activities: inhibitor at 5 μM.

Data on 2 compounds can be found in PMC8693659 (RSC Advances, 2021).

As usually defined, the IC50 is the concentration that inhibits the measured activity by half. The low end stands for greater potency in that assay, the high end for weaker potency in that assay.

For `Cc1coc2c1C(=O)C(=O)c1c-2ccc2c(C)cccc12` [TanI, tanshinone I], the IC50 is 1.72 µM and the “remained SYK activities” value is 37.0 ± 2.3%.

With `Cc1coc2c1C(=O)C(=O)c1c-2ccc2c1CCCC2(C)C` [TanIIA, tanshinoneIIA], the half-inhibitory concentration (IC50) is 3.2 µM and the “remained SYK activities” value worked out at 44.7 ± 3.3%.
